The NIST ThermoML archive (doi:10.1021/je800583r)
± gives the expanded uncertainty stated by the source.

Details: 101.33 kPa, Liquid

CCC1COC(=O)O1 (configuration not stated) [1,2-butylene carbonate]
mass density (283 K): 1155.2 ± 0.4 kg/m3 | mass density (293.1 K): 1146.6 ± 0.4 kg/m3 | mass density (295.1 K): 1144.9 ± 0.4 kg/m3 | mass density (297.1 K): 1143.3 ± 0.4 kg/m3 | mass density (299.1 K): 1141.7 ± 0.4 kg/m3 | mass density (301.1 K): 1140.1 ± 0.4 kg/m3 | mass density (303.1 K): 1138.6 ± 0.4 kg/m3
